Laboratory results: patent EP0330353A1, “Tetrazole excitatory amino acid receptor antagonists” (ELI LILLY AND COMPANY, priority 1988, dated 1989)
Where two headings read alike, the source gives them in different places.

Assays:
NMDA = assay: In vivo NMDA-induced lethality in mice; set-up: species or system Male Charles River CF1 mice; details: for minimal effective dose: Mus musculus, 20 min, read-out: MED
Method: A typical receptor substance is characterized by N-methyl-D-aspartic acid (NMDA).
Male Charles River CF1 mice held in the laboratory for a minimum of three days were housed, 12 per cage, on sawdust bedding in clear plastic boxes with wire mesh lids. Animals were allowed full access to feed and water prior to testing.
Unless otherwise specified, all test compounds were formulated in dimethylsulfoxide (DMSO) and diluted to a 5% DMSO/sterile water solution by volume. Dosing began at 160 mg/kg. If any significant activity was detected, the test drug dose was divided in half until no more activity was detected. All test compounds were administered using the intraperitoneal injection (i.p.) route at a volume of 0.01 cc/gm.
Five mice were taken from the plastic cages, dosed with the test compound and placed individually in clear plastic observation cages. After a 30 minute drug absorption period, the mice were injected intra-peritoneally with 200 mg/kg of NMDA. This dose of NMDA produces death in more than 95% of control-treated animals. Twenty minutes after the NMDA injection the animals were scored as dead or alive. Data are reported as the minimum effective dose (MED) to block NMDA-induced lethality. Protection from lethality is met by the survival of at least three of the five animals. Data for AP5 and AP7, known excitatory amino acid antagonists, are provided for comparison.

NMDA receptors = assay: NMDA-induced seizures in neonatal rats; assay type: in vivo, neonatal (7 to 8 days old) Sprague-Dawley rats; details: lowest dose preventing NMDA-induced seizures in at least 3 of 5 neonatal rats; test drug i.p. in saline 30 min before NMDA 20 mg/kg i.p.; observed 30 min
Method: In another experiment, male or female neonatal (7 to 8 days old) Sprague-Dawley rats were removed from the dam and placed in plastic observation chambers that were maintained at 30-32°C. All test drugs were dissolved in normal saline. Activation of NMDA receptors in these rats leads to a readily observable generalized motor seizure in over 95% of the animals.
Animals were injected by the intraperitoneal route with the test drug (1 ml/100 g of body weight) and observed for a 30 minute period for seizure (potential agonist) activity. They were then injected with NMDA at a dose of 20 mg/kg body weight i.p. to test for antagonist activity. […] Generally, five animals were used at each dose of compound. […] The minimum effective dose was the lowest test dose which prevented NMDA-induced seizures in at least three out of five animals.

[1] = minimum effective dose to block NMDA-induced lethality (survival of at least 3 of 5 mice), test compound i.p. 30 min before 200 mg/kg NMDA i.p., scored 20 min after NMDA

Compound: NC(CCCCCP(=O)(O)O)C(=O)O (stereo not drawn) [AP7, reference compound]
- minimal effective dose (NMDA): 160 mg/kg

Compound: CCOC(=O)C1CC(Cc2nn[nH]n2)CCN1 (racemic) [Example 6, Ethyl cis-(±)-4-[(1(2)H-tetrazol-5-yl)methyl]-2-piperidinecarboxylate]
- MED (NMDA receptors): 200 mg/kg

Compound: cis-(±)-4-[(1(2)-Methyl-1(2)H-tetrazol-5-yl)methyl]-2-piperidinecarboxylic acid [Example 7]
- MED (NMDA; [1]): 160 mg/kg

Compound: O=C(O)[C@H]1C[C@@H](Cc2nn[nH]n2)CCN1 (racemic) [Example 3, cis-(±)-4-[(1(2)H-Tetrazol-5-yl)methyl]-2-piperidinecarboxylic acid]
- minimal effective dose (NMDA; [1]): 10 mg/kg

Compound: O=C(O)[C@H]1C[C@@H](CCc2nn[nH]n2)CCN1 (racemic) [Example 1, cis-(±)-4-[2-(1(2)H-Tetrazol-5-yl)ethyl]-2-piperidinecarboxylic acid]
- minimal effective dose (NMDA; [1]): 20 mg/kg

Compound: O=C(O)[C@H]1C[C@@H](CCCc2nn[nH]n2)CCN1 (racemic) [Example 2, cis-(±)-4-[3-(1(2)H-Tetrazol-5-yl)propyl]-2-piperidinecarboxylic acid]
- minimal effective dose (NMDA; [1]): 10 mg/kg

Compound: CCCCOC(=O)[C@H]1C[C@@H](Cc2nn[nH]n2)CCN1 (racemic) [Example 5, Butyl cis-(±)-4-[(1(2)H-tetrazol-5-yl)methyl]-2-piperidinecarboxylate]
- minimal effective dose (NMDA; [1]): 160 mg/kg

Compound: O=C(O)C1C/C(=C\c2nn[nH]n2)CCN1 (racemic) [Example 4, Z-(±)-4-[(1(2)H-Tetrazol-5-yl)methylidene]-2-piperidinecarboxylic acid]
- minimal effective dose (NMDA; [1]): 20 mg/kg

Compound: NC(CCCP(=O)(O)O)C(=O)O (stereo not drawn) [AP5, reference compound]
- minimal effective dose (NMDA; [1]): 80 mg/kg
